Data taken from publication PMC10518255, “A first-in-class pan-lysyl oxidase inhibitor impairs stromal remodeling and enhances gemcitabine response and survival in pancreatic cancer” (Nature Cancer, 2023).
Values joined by “and” are separate entries in the source; they are usually repeats but may differ in a detail not shown here. Equal values may be shown once.

Assays:
KPC PDAC tumors = assay: Picrosirius red staining of KPC tumors (Fig. 1g); format: in vivo, mouse; settings: KPC tumour bearing mice, Gem 100 mg/kg twice weekly i.p. for 15 cycles, individual animals
Excerpt: Fig. 1 Characterization of LOX family in PDAC. a,b, Kaplan–Meier curves for 5-year overall survival for lysyl oxidase family scores in the APGI/ICGC (low, n = 90 patients; high, n = 89 patients) (a) and TCGA (low, n = 57 patients; high, n = 58 patients) (b) PDAC datasets. Lines represent upper and lower tertiles. The lysyl oxidase family expression score is weighted by the Cox proportional hazards model coefficients for each family member. P values determined by log-rank (Mantel–Cox) test. c, Representative images of picrosirius red stained tumor cores from APGI/ICGC tumor microarrays. […] P values determined by log-rank (Mantel–Cox) test. e, Human LOX and LOXL2 plasma concentrations in healthy (n = 30 patient samples) and patients with PDAC (n = 12 patient samples) determined by SiMoA. […] Scale bars, 100 μm. g, Quantitative comparison of picrosirius red staining in tumors from KPC tumor-bearing mice treated with either saline vehicle or gemcitabine (n = 10 biologically independent animals per group). […] Two-tailed P values determined by unpaired, nonparametric t-tests with a Mann–Whitney U-test correction (comparison between two groups). […]

Recombinant LOXL-1 = molecular target: T1, Recombinant LOXL-1 (Homo sapiens, UniProt Q08397); assay: Lysyl oxidase enzymatic activity, fluorescence-based assay, IC50; format: biochemical
T1 sequence (Q08397 96-574): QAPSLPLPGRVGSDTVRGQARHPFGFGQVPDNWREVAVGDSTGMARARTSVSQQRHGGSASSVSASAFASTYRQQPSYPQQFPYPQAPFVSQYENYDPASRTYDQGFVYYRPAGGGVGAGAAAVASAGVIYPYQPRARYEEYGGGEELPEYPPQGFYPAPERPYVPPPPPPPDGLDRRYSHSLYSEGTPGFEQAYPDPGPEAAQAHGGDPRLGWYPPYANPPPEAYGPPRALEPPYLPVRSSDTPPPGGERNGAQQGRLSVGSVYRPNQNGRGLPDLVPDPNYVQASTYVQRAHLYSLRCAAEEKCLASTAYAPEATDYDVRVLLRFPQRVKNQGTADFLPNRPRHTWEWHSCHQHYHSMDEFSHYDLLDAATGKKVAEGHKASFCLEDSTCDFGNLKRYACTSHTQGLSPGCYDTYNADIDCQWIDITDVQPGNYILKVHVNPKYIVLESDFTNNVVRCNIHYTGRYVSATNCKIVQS
Excerpt: Data are presented as mean ± s.d. […] Data presented as mean ± s.d. […] Source data TEXT PRINTED IN THE PICTURE: (b) PXS-5505: Recombinant DAO IC50 (nM): >30,000; Recombinant SSAO/VAP1 IC50 (nM): >30,000; Recombinant MAO-A IC50 (nM): >30,000; Recombinant MAO-B IC50 (nM): >30,000 | (f) PXS-5505: Fibroblast LOX IC50 (nM): 4,930; Recombinant LOXL-1 IC50 (nM): 1,590; Recombinant LOXL-2 IC50 (nM): 570; Recombinant LOXL-3 IC50 (nM): 1,800; Recombinant LOXL-4 IC50 (nM): 190
In characterizing PXS-5505, the half-maximum inhibitory concentration (IC50) values for each of the lysyl oxidase family members were determined by measuring enzymatic activity using a fluorescence-based assay. […]

## Nc1ccn([C@@H]2O[C@H](CO)[C@@H](O)C2(F)F)c(=O)n1 [Gem, gemcitabine]
KPC PDAC tumors
  picrosirius red staining in tumours: 26.8678 and 24.1241 and 47.4949 and 47.2536 and 61.2999 and 20.5678 and 34.5947 and 25.1726 and 42.1276 and 82.533

## Cl.Cl.NC/C=C(\F)CS(=O)(=O)c1cccc2cccnc12.O [PXS-5505, (Z)-3-fluoro-4-(quinolin-8-ylsulfonyl)but-2-en-1-amine dihydrochloride monohydrate]
Recombinant LOXL-1
  IC50: 1.59 µM
Recombinant LOXL-1; log(Concentration) -4.52288, replicates, 30 µM
  LOXL1 activity, IC50 determination curve: -0.3767 and 0.3431 and 4.322
Recombinant LOXL-1; log(Concentration) -5, replicates, 10 µM
  LOXL1 activity, IC50 determination curve: 5.837
Recombinant LOXL-1; log(Concentration) -5.47712, replicates, 3.333 µM
  LOXL1 activity, IC50 determination curve: 31.2503 and 31.9336
Recombinant LOXL-1; log(Concentration) -5.95424, replicates, 1.111 µM
  LOXL1 activity, IC50 determination curve: 60.6166 and 67.4565
Recombinant LOXL-1; log(Concentration) -6.43136, replicates, 0.3704 µM
  LOXL1 activity, IC50 determination curve: 85.3221 and 90.5851
Recombinant LOXL-1; log(Concentration) -6.90849, replicates, 0.1235 µM
  LOXL1 activity, IC50 determination curve: 93.09 and 98.6783
Recombinant LOXL-1; log(Concentration) -7.38561, replicates, 0.04115 µM
  LOXL1 activity, IC50 determination curve: 99.6453 and 102.919
Recombinant LOXL-1; log(Concentration) -7.86273, replicates, 0.01372 µM
  LOXL1 activity, IC50 determination curve: 100.176 and 100.944
Recombinant LOXL-1; log(Concentration) -8.33985, replicates, 0.004572 µM
  LOXL1 activity, IC50 determination curve: 101.83 and 104.276
Recombinant LOXL-1; log(Concentration) -8.81697, replicates, 0.001524 µM
  LOXL1 activity, IC50 determination curve: 107.666 and 104.748
Recombinant LOXL-1; log(Concentration) -9.29409, replicates, 0.000508 µM
  LOXL1 activity, IC50 determination curve: 100.744 and 106.953
Recombinant LOXL-1; read-out: LOXL1 activity, IC50 determination curve, log(Concentration) -5, replicates
  activity at 10 µM: 4.51%
Recombinant LOXL-1; read-out: LOXL1 activity, IC50 determination curve, log(Concentration) -5.47712, replicates
  activity at 3.333 µM: 20.9%
Recombinant LOXL-1; read-out: LOXL1 activity, IC50 determination curve, log(Concentration) -5.95424, replicates
  activity at 1.111 µM: 63.8%
Recombinant LOXL-1; read-out: LOXL1 activity, IC50 determination curve, log(Concentration) -6.43136, replicates
  activity at 0.3704 µM: 85%
Recombinant LOXL-1; read-out: LOXL1 activity, IC50 determination curve, log(Concentration) -6.90849, replicates
  activity at 0.1235 µM: 94.6%
Recombinant LOXL-1; read-out: LOXL1 activity, IC50 determination curve, log(Concentration) -7.38561, replicates
  activity at 0.04115 µM: 99.8%
Recombinant LOXL-1; read-out: LOXL1 activity, IC50 determination curve, log(Concentration) -7.86273, replicates
  activity at 0.01372 µM: 100%
Recombinant LOXL-1; read-out: LOXL1 activity, IC50 determination curve, log(Concentration) -8.33985, replicates
  activity at 0.004572 µM: 101%
Recombinant LOXL-1; read-out: LOXL1 activity, IC50 determination curve, log(Concentration) -8.81697, replicates
  activity at 0.001524 µM: 101%
Recombinant LOXL-1; read-out: LOXL1 activity, IC50 determination curve, log(Concentration) -9.29409, replicates
  activity at 0.000508 µM: 102%
